Test results reported in article PMC5356834 (Oncotarget, 2016).
One block for each compound: values may come before it.

Key:
[1] = test system: α-tubulin acetylation in A2780 ovarian cancer cells; test: Immunoblotting of acetylated α-tubulin in A2780 cells; assay type: cell-based
Protocol: (§1) Lysates were sonicated 2 to 3 times for 30 sec in medium (Diagenode, Bioruptor 300).
(§2) For western blot analysis, equal amounts of protein were loaded and size separated on Bolt™ 4 to 12% Bis-Tris Plus Gels. Proteins were subsequently transferred onto polyvinylidene difluoride (PVDF) membrane using an iBlot® 2 Dry Blotting System (Invitrogen). Immunoblotting was carried out according to standard protocols with antibodies against histone H3 acetyl-lysine 56 (abcam), histone-H4, pantropic (Millipore), acetyl-α-tubulin (Sigma); and β-Actin (Sigma). Antigen-antibody complexes were detected using secondary antibodies conjugated with horseradish […] (HRP) and visualized using enhanced chemiluminescence (GE Healthcare; Piscataway, NJ).

[2] = test system: histone H3 acetylation in A2780 ovarian cancer cells; test: Immunoblotting of acetylated histone H3 (H3K56) in A2780 cells; assay type: cell-based; settings: 24 hour treatment
Protocol: as §1, §2

MiaPaCa-2 xenografts = test: MiaPaCa-2 pancreatic cancer xenograft; assay type: in vivo, mice; settings: MiaPaCa-2 xenograft, HDAC6 inhibitor 50 mg/kg IP plus paclitaxel 10 mg/kg
[3] = test system: A2780, TOV-21G and MDA-MB-231 cells; test: MTS cell viability assay; assay type: cell-based; settings: 72 h, range over A2780, TOV-21G and MDA-MB-231 cells, 3 days, read-out: single agent viability IC50
Protocol: CellTiter 96® AQueous One Solution; Promega; Madison, WI, USA) dye absorbance. Cells (A2780, TOV-21G, MDA-MB-231) from 72 hour cultures were pulsed with 5 μL of CellTiter 96® AQueous One Solution in each well. The 384-well plates were incubated at 37°C for 5 hours, and absorbance was read in triplicate at a wavelength of 490 nm (with background correction using readings at 650 nm) on a spectrophotometer (Molecular Devices Corp.; Sunnyvale, CA, USA). […] The IC50 for each agent in each cell line is indicated in the legend of each graph. Real-time kinetic trace graphs of (C) cell proliferation and (D) induction of apoptosis were generated in the MDA- MB-231 breast cancer cell line. […] The mean and SEM of three replicate samples are shown. […]

[4] = test system: MDA-MB-231 breast cancer cells; test: IncuCyte live-cell proliferation assay; assay type: cell-based; settings: for proliferation (absolute cell number): MDA-MB-231, single agent
[5] = test system: MDA-MB-231 breast cancer cells; test: IncuCyte Caspase 3/7 apoptosis assay; assay type: cell-based; settings: for apoptosis (Caspase 3/7): MDA-MB-231, single agent
[6] = test system: A2780, TOV-21G and MiaPaCa-2 cells; test: EdU / FxCycle flow cytometry cell cycle assessment in multiple cell lines (Figure 4B, 4C); assay type: cell-based
[7] = test system: phospho-histone H3 (pH3) positive cells; test: Phospho-histone H3 / DNA content flow cytometry for M phase cells; assay type: cell-based; settings: for pH3 positive cells (M phase): low dose 6 nM
Protocol: arrest. (A) Dual parameter phospho-histone H3 (y axis, M phase cells) and FxCycle Far Red (x axis, DNA content) staining indicate the […]
High dose treatment of paclitaxel (100 nM) served as a positive control for M phase arrest. (B) Phase contrast micrographs were taken at the indicated time points after treatment of the samples in panel (A).
(§3) (1 picture or pasted object on this page, not shown here)

[8] = test system: α-tubulin acetylation in A2780 and MDA-MB-231 cells; test: Immunoblotting of acetylated α-tubulin after combination treatment; assay type: cell-based; settings: 48 hours
Protocol: A2780 and MDA-MB-231 cells were treated for 48 hours with the indicated concentrations of each drug and whole cell protein lysates were subjected to immunoblotting using antibodies for acetylated-α-tubulin and β-actin.
as §1, §2
For WES analysis, lysates were separated by an automated capillary-based electrophoresis system (WES, ProteinSimple, San Jose, CA). All procedures were performed according to the manufacturer's recommendations using the supplied reagents. […] The resulting data were analyzed using Compass software (ProteinSimple).

[9] = test system: TOV-21G ovarian cancer cells; test: Multipolar mitotic spindle scoring by α-tubulin staining; assay type: cell-based; settings: 24 hours; for frequency of multipolar spindle formation, combination with paclitaxel: HDAC6 inhibitor 2 μM plus paclitaxel 2 nM; for frequency of multipolar mitotic spindle formation, single agent: paclitaxel 2 nM, ACY-241 2 μM, ACY-1215 2 μM, control 3.1%
Protocol: (§4) Cells grown on glass coverslips were fixed in 4% paraformaldehyde for 15 min, followed by permeabilization with 0.5% Triton X-100 in PBS for 5 min. The cells were then incubated with α-tubulin (DM1A) mouse monoclonal antibody (Cell Signaling Technology, Danvers, MA), γ-tubulin (GTU-88) mouse monoclonal antibody (Sigma-Aldrich, St. Louis, MO) or NuMA (GT3611) mouse monoclonal antibody (Thermo Scientific, Rockford, IL) followed by Alexa Fluor 488 or 546 conjugated secondary antibodies (Invitrogen, Carlsbad, CA). Images were obtained with a Zeiss AX10 microscope (Carl Zeiss Micro-Imaging, Inc., Jena, Germany) equipped with a 20 X, 40X, or 63 X objective and standard filter set.
for α-tubulin (red) and DNA (blue) identified mitotic cells with multipolar spindles. (B) The frequency of multipolar spindle formation in
M phase cells was scored in at least 50 cells per treatment condition.
as §3

TOV-21G cells [10] = test: Multipolar mitotic spindle scoring by NuMA and α-tubulin co-staining; assay type: cell-based; settings: 24 hours
Description: (§5) (B) The frequency of mitotic cells with multipolar spindles was scored in at least 50 cells from each treatment condition. Shown is the mean ± SD of three independent experiments. […] Microtubules and DNA were visualized by staining with anti-α-tubulin antibody (green) and DAPI (blue), respectively. The frequency of interphase cells with visually abnormal nuclei, including satellite nuclei and multinucleation, was scored in at least 100 cells per treatment condition. Shown is the mean ± SD of three independent experiments.
as §4
(A) Immunostaining for α-tubulin (green), NuMA
(red), and DNA (blue). (B) The frequency of mitotic cells with multipolar spindles was scored in at least 100 cells from each treatment
as §3

TOV-21G cells [11] = test: Live cell time-lapse imaging of cell division; assay type: cell-based; settings: ACY-241 2 μM plus paclitaxel 5 nM, up to 48 hours
Protocol: Time-lapse imaging was obtained on a Zeiss AX10 live-cell microscope coupled with a CO2 and temperature-maintenance system, and a time-lapse recording system supporting multi-location time series acquisition (SlideBook6 x64, Intelligent Imaging Innovations, Inc., Ringsby, CT). After staining with 10 nM Hoechst33342, TOV-21G cells were incubated in 10% CO2 at 37°C and time-lapse images were acquired at 2 min intervals up to 48 hours with a CoolSNAP HQ2 CCD camera (Photometrics, Tucson, AZ). […]
monitored by live cell time-lapse microscopy. (A) The number of observed mitotic cells, unresolved mitoses, and frequency of bipolar and multipolar division from resolved mitosis were assessed. (B) Fluorescent and matched phase-contrast time-lapse images of representative mitoses in TOV-21G cells treated with the drug combination. Numbers show elapsed time after drug treatment (hour:minute:second), the color of circles differentiates individual cells being monitored, and dashed circles indicate observation of cell death. Panels labeled with lower case letters (a-e) identify timepoints with matched phase contrast images below (a’-e’).
as §3

TOV-21G cells [12] = test: Scoring of interphase cells with abnormal nuclei; assay type: cell-based; settings: 48 hours
Description: as §5, §4

[13] = Tolerability and body weight in xenograft-bearing mice; settings: for body weight change: MiaPaCa-2 model, combination treatment with paclitaxel; for tolerability in mice: dosed as a single agent and in combination with paclitaxel
TOV-21G xenografts = test: TOV-21G ovarian cancer xenograft; assay type: in vivo, mice; settings: TOV-21G xenograft, HDAC6 inhibitor 50 mg/kg IP plus paclitaxel 10 mg/kg
A2780 xenografts = test: A2780 ovarian cancer xenograft; assay type: in vivo, mice; settings: HDAC6 inhibitor 50 mg/kg IP plus paclitaxel 10 mg/kg
[14] = MDA-MB-231, relative to either single agent

SMILES: O=C(CCCCCCNC(=O)c1cnc(N(c2ccccc2)c2ccccc2Cl)nc1)NO [ACY-241]
hyperacetylation of α-tubulin ([1]; 24 hour treatment, 300 nM): increased hyperacetylation of α-tubulin
α-tubulin hyperacetylation, dose dependence ([1]; range of concentrations, 24 hours): dose-dependent increase in α-tubulin hyperacetylation
doses at which hyperacetylation of histone H3 was observed [2]: above 1 μM
suppression of tumor growth, combination with paclitaxel (MiaPaCa-2 xenografts): similarly significant efficacy
IC50 [3]: 4600 to 6100 nM
proliferation, combination with paclitaxel [4, 14]: significantly reduced proliferation
proliferation (absolute cell number) ([4]; 10 μM): completely suppressed proliferation
proliferation (absolute cell number) ([4]; doses up to 3 μM, 96 hours): modestly reduced proliferation
apoptosis, combination with paclitaxel [5, 14]: enhanced apoptosis
apoptosis (Caspase 3/7) ([5]; 10 μM): significant induction of apoptosis
apoptosis (Caspase 3/7) ([5]; doses up to 3 μM, 96 hours): without inducing apoptosis
percentage of cells in S phase, combination with paclitaxel ([6]; A2780 and TOV-21G (3 days), MiaPaCa-2 (5 days)): significantly reduced the percentage of cells in S phase
induction of cell death (SubG1), combination with paclitaxel ([6]; relative to control or single agent treatment): significantly increased induction of cell death
M phase arrest ([7]; 2 μM, single agent or in combination with paclitaxel): did not significantly increase M phase arrest
α-tubulin hyperacetylation, combination with paclitaxel [8]: synergistic increase in α-tubulin hyperacetylation
frequency of multipolar spindle formation, combination with paclitaxel [9]: 38.6%
frequency of multipolar mitotic spindle formation, single agent [9]: 10.7%
frequency of multipolar spindle formation, combination with paclitaxel (TOV-21G cells [10]; NuMA/α-tubulin co-staining, p = 0.0047 vs paclitaxel): 51.5%
frequency of multipolar spindle formation, combination with epothilone (TOV-21G cells [10]; epothilone 0.5 nM plus ACY-241): 51.3%
frequency of multipolar cell division, combination with paclitaxel (TOV-21G cells [11]): increased the frequency of multipolar cell division compared to each single agent
frequency of cells with visually abnormal nuclei, combination with paclitaxel (TOV-21G cells [12]): significantly increased the frequency of cells with visually abnormal nuclei
body weight change [13]: did not result in body weight loss
tolerability in mice [13]: well tolerated

SMILES: C/C(=C\c1csc(C)n1)[C@@H]1C[C@@H]2O[C@]2(C)CCC[C@H](C)[C@H](O)[C@@H](C)C(=O)C(C)(C)[C@@H](O)CC(=O)O1 [epothilone, epothilone B, reference compound]
frequency of multipolar mitotic spindle formation, single agent (TOV-21G cells [10]; 0.5 nM, control 0.9%): 29.9%

IC50 [3]: 2.3 to 3.2 nM
SMILES: CC(=O)O[C@H]1C(=O)[C@@]2(C)[C@H]([C@H](OC(=O)c3ccccc3)[C@]3(O)C[C@H](OC(=O)[C@H](O)[C@@H](NC(=O)c4ccccc4)c4ccccc4)C(C)=C1C3(C)C)[C@]1(OC(C)=O)CO[C@@H]1C[C@@H]2O [paclitaxel, reference compound]
proliferation (absolute cell number) ([4]; up to 2 nM): modestly reduced cell proliferation
apoptosis (Caspase 3/7) ([5]; up to 2 nM): did induce apoptosis after longer duration of exposure
cell cycle arrest at M phase ([7]; high concentration 100 nM, 8 to 24 hours): induced cell cycle arrest at mitosis (M) phase
pH3 positive cells (M phase) ([7]; 8 hours, DMSO […]): 14%
pH3 positive cells (M phase) ([7]; 24 hours): 4.1%
frequency of multipolar mitotic spindle formation, single agent [9]: 15.2%
frequency of multipolar spindle formation, single agent (TOV-21G cells [10]; NuMA/α-tubulin co-staining (Figure 6B)): 30.4%

SMILES: O=C(CCCCCCNC(=O)c1cnc(N(c2ccccc2)c2ccccc2)nc1)NO [ricolinostat]
suppression of tumor growth, combination with paclitaxel (TOV-21G xenografts): significantly greater suppression of tumor growth relative to either single agent
suppression of tumor growth, combination with paclitaxel (A2780 xenografts): significantly greater suppression of tumor growth relative to either single agent
suppression of tumor growth, combination with paclitaxel (MiaPaCa-2 xenografts): significantly greater suppression of tumor growth relative to either single agent
frequency of multipolar spindle formation, combination with paclitaxel [9]: 41.3%
frequency of multipolar mitotic spindle formation, single agent [9]: 12.6%
body weight change [13]: did not result in body weight loss
tolerability in mice [13]: well tolerated
